The source of these data is patent US8633315B2, “Substituted hydroxyethyl amine compounds as beta-secretase modulators and methods of use” (Amgen Inc., priority 2007, dated 2014).

The structures appear in SMILES notation. Bounds are passed on as bounds.

One assay has as its target BACE1 (Homo sapiens, UniProt P56817). Briefly: In vitro enzymatic BACE FRET (fluorescence resonance energy transfer) assay. In kind it is biochemical. The procedure, abridged: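 Fluorescence (ex 488 nm, […]) was read after Tris addition raised pH to neutral, ending a one-hour incubation. Reaction started with 50 nM fluorophore/quencher peptide substrate in pH 4.2 acetate (0.05 M) containing 100 uM genapol and 10% DMSO final.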

The test system of assay [1] is Cells stably expressing Amyloid Precursor Protein (APP). Nature of the assay: In vitro BACE cell-based assay (HEK cell assay): Aβ40 in conditioned medium by sandwich ELISA. To be noted: Aβ40 in conditioned medium after 24 h incubation. The procedure, abridged:
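Secreted Aβ40 was quantified by time-resolved fluorescence sandwich ELISA, capturing with pAb40 for 3 h at 4 °C and detecting with biotinylated 6E10 for 2 h at 4 °C. Media came from APP-expressing cells exposed 24 h to compounds (10-point series from 100 or 10 μM, 0.1% DMSO); IC50 derived from percent of control.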

Sequence of BACE1 (P56817 46-501, species assumed): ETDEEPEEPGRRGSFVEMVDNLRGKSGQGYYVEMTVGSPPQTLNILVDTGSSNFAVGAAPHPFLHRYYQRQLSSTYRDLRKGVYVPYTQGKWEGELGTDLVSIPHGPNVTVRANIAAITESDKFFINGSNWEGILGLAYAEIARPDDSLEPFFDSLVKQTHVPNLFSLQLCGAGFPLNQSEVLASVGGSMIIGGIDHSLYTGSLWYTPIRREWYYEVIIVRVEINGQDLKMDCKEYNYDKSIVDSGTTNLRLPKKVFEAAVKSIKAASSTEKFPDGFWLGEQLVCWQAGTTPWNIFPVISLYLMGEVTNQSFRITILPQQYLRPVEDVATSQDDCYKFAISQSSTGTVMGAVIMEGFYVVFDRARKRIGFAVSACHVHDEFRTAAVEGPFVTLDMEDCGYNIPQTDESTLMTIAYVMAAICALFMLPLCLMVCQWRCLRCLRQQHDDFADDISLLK

Consider `C=CC[C@H](NC(=O)OCc1cncs1)[C@H](O)CN[C@H]1CC2(CCC2)Oc2ncc(CC(C)(C)C)cc21` [Example 105, 1,3-thiazol-5-ylmethyl ((1S)-1-((1R)-2-(((4′S)-6′-(2,2-dimethylpropyl)-3′,4′-dihydrospiro[cyclobutane-1,2′-pyrano[2,3-b]pyridin]-4′-yl)amino)-1-hydroxyethyl)-3-buten-1-yl)carbamate], for which the IC50 at BACE1 worked out at 396 nM; in assay [1] (Homo sapiens, HEK293, 24 h), 1160 nM.
On the same counts, the results for `C=CC[C@H](NC(=O)c1ccccc1)[C@H](O)CN[C@H]1CC2(CCC2)Oc2ncc(CC(C)(C)C)cc21` [Example 59, N-((1S)-1-((1R)-2-(((4′S)-6′-(2,2-dimethylpropyl)-3′,4′-dihydrospiro[cyclobutane-1,2′-pyrano[2,3-b]pyridin]-4′-yl)amino)-1-hydroxyethyl)-3-buten-1-yl)benzamide] are 125 nM and 349 nM.
In the case of `C=CC[C@H](NC(=O)COC(C)(C)C)[C@H](O)CN[C@H]1CC2(CCC2)Oc2ncc(CC(C)(C)C)cc21` [Example 144, 2-((1,1-dimethylethyl)oxy)-N-((1S)-1-((1R)-2-(((4′S)-6′-(2,2-dimethylpropyl)-3′,4′-dihydrospiro[cyclobutane-1,2′-pyrano[2,3-b]pyridin]-4′-yl)amino)-1-hydroxyethyl)-3-buten-1-yl)acetamide], the IC50 at BACE1 stood at 344 nM; in assay [1] (Homo sapiens, HEK293, 24 h), 1130 nM.
On the same counts, the results for `C=CC[C@H](NC(=O)[C@H](CC)OC)[C@H](O)CN[C@H]1CC2(CCC2)Oc2ncc(CC(C)(C)C)cc21` [Example 147, (2S)-N-((1S)-1-((1R)-2-(((4′S)-6′-(2,2-dimethylpropyl)-3′,4′-dihydrospiro[cyclobutane-1,2′-pyrano[2,3-b]pyridin]-4′-yl)amino)-1-hydroxyethyl)-3-buten-1-yl)-2-(methyloxy)butanamide] are 95 nM and 420 nM.
On the same counts, the results for `C=CCC(NC(=O)C1CN(C(=O)N2CCCCC2)CCO1)C(O)CNC1CC2(CCC2)Oc2ncc(CC(C)(C)C)cc21` (stereo not drawn) [Example 152] are 12 nM and 4 nM.
On the same counts, the results for `C=CC[C@H](NC(=O)c1nccs1)[C@H](O)CN[C@H]1CC2(CCC2)Oc2ncc(CC(C)(C)C)cc21` [Example 133, N-((1S)-1-((1R)-2-(((4′S)-6′-(2,2-dimethylpropyl)-3′,4′-dihydrospiro[cyclobutane-1,2′-pyrano[2,3-b]pyridin]-4′-yl)amino)-1-hydroxyethyl)-3-buten-1-yl)-1,3-thiazole-2-carboxamide] are 106 nM and 167 nM.
`C=CC[C@H](NC(=O)c1cccnn1)[C@H](O)CN[C@H]1CC2(CCC2)Oc2ncc(CC(C)(C)C)cc21` [Example 57, N-((1S)-1-((1R)-2-(((4′S)-6′-(2,2-dimethylpropyl)-3′,4′-dihydrospiro[cyclobutane-1,2′-pyrano[2,3-b]pyridin]-4′-yl)amino)-1-hydroxyethyl)-3-buten-1-yl)-3-pyridazinecarboxamide]: the IC50 was 131 nM at BACE1 and 228 nM in assay [1] (Homo sapiens, HEK293, 24 h).
On the same counts, the results for `C=CC[C@H](NC(=O)COC)[C@H](O)CNC1CC2(CC(F)(F)C2)Oc2ncc(CC(C)(C)C)cc21` (stereo partly drawn) [Example 41, N-((1S)-1-((1R)-2-((6′-(2,2-dimethylpropyl)-3,3-difluoro-3′,4′-dihydrospiro[cyclobutane-1,2′-pyrano[2,3-b]pyridin]-4′-yl)amino)-1-hydroxyethyl)-3-buten-1-yl)-2-(methyloxy)acetamide] are 42 nM and 127 nM.
Take `C=CC[C@H](NC(C)=O)[C@H](O)CN[C@H]1CC2(CCC2)Oc2ncc(CC(C)C)cc21` [Example 38, N-((1S)-1-((1R)-1-hydroxy-2-(((4′S)-6′-(2-methylpropyl)-3′,4′-dihydrospiro[cyclobutane-1,2′-pyrano[2,3-b]pyridin]-4′-yl)amino)ethyl)-3-buten-1-yl)acetamide]: the IC50 on BACE1 was 81 nM; in assay [1] (Homo sapiens, HEK293, 24 h), 85 nM.
Taken in the same sequence, the figures for `C=CC[C@H](NC(C)=O)[C@H](O)CN[C@H]1C[C@@]2(CC[C@H]2O)Oc2ncc(CC(C)(C)C)cc21` [Example 50, N-((1S)-1-((1R)-2-(((1R,2R,4′S)-6′-(2,2-dimethylpropyl)-2-hydroxy-3′,4′-dihydrospiro[cyclobutane-1,2′-pyrano[2,3-b]pyridin]-4′-yl)amino)-1-hydroxyethyl)-3-buten-1-yl)acetamide] were 4160 nM and no less than 10000 nM.
For the compound `C=CCC(NC(C)=O)C(O)CNC1CC2(CC(O)C2)Oc2ccc(CC(C)(C)C)cc21` [Example 115, N-((1S)-1-((1R)-2-(((2s,3′S,4S)-6-(2,2-dimethylpropyl)-3′-hydroxy-3,4-dihydrospiro[chromene-2,1′-cyclobutan]-4-yl)amino)-1-hydroxyethyl)-3-buten-1-yl)acetamide], the figures for the IC50 (on BACE1; in assay [1]) were 335 nM and 513 nM, respectively.
On to `C=CC[C@H](NC(=O)C(F)(F)F)[C@H](O)CN[C@H]1CC2(CCC2)Oc2ncc(CC(C)(C)C)cc21` [Example 94, N-((1S)-1-((1R)-2-(((4′S)-6′-(2,2-dimethylpropyl)-3′,4′-dihydrospiro[cyclobutane-1,2′-pyrano[2,3-b]pyridin]-4′-yl)amino)-1-hydroxyethyl)-3-buten-1-yl)-2,2,2-trifluoroacetamide], for which the IC50 on BACE1 was found to be 73 nM; in assay [1] (Homo sapiens, HEK293, 24 h), 154 nM.
On the same counts, the results for `C=CC[C@H](NC(=O)c1cc(F)ccc1F)[C@H](O)CN[C@H]1CC2(CCC2)Oc2ncc(CC(C)(C)C)cc21` [Example 71, N-((1S)-1-((1R)-2-(((4′S)-6′-(2,2-dimethylpropyl)-3′,4′-dihydrospiro[cyclobutane-1,2′-pyrano[2,3-b]pyridin]-4′-yl)amino)-1-hydroxyethyl)-3-buten-1-yl)-2,5-difluorobenzamide] are 212 nM and 998 nM.
On the same counts, the results for `C#CC[C@H](NC(C)=O)[C@H](O)CN[C@H]1CC2(CCC2)Oc2ncc(CC(C)(C)C)cc21` [Example 84, N-((1S)-1-((1R)-2-(((4′S)-6′-(2,2-dimethylpropyl)-3′,4′-dihydrospiro[cyclobutane-1,2′-pyrano[2,3-b]pyridin]-4′-yl)amino)-1-hydroxyethyl)-3-butyn-1-yl)acetamide] are 40 nM and 222 nM.
On the same counts, the results for `C#CC[C@H](NC(=O)COC)[C@H](O)CN[C@H]1CC2(CCC2)Oc2ncc(CC(C)(C)C)cc21` [Example 85, N-((1S)-1-((1R)-2-(((4′S)-6′-(2,2-dimethylpropyl)-3′,4′-dihydrospiro[cyclobutane-1,2′-pyrano[2,3-b]pyridin]-4′-yl)amino)-1-hydroxyethyl)-3-butyn-1-yl)-2-(methyloxy)acetamide] are 49 nM and 511 nM.
`C=CC[C@H](NC(=O)c1cnccn1)[C@H](O)CN[C@H]1CC2(CCC2)Oc2ncc(CC(C)(C)C)cc21` [Example 98, N-((1S)-1-((1R)-2-(((4′S)-6′-(2,2-dimethylpropyl)-3′,4′-dihydrospiro[cyclobutane-1,2′-pyrano[2,3-b]pyridin]-4′-yl)amino)-1-hydroxyethyl)-3-buten-1-yl)-2-pyrazinecarboxamide]: the IC50 on BACE1 worked out at 741 nM; in assay [1] (Homo sapiens, HEK293, 24 h), 1680 nM.
Taken in the same sequence, the figures for `C=CC[C@H](NC(=O)COC)[C@H](O)CN[C@H]1CC2(CCC2)Oc2ccc(CC(C)C)cc21` [Example 35, N-((1S)-1-((1R)-1-hydroxy-2-(((4S)-6-(2-methylpropyl)-3,4-dihydrospiro[chromene-2,1′-cyclobutan]-4-yl)amino)ethyl)-3-buten-1-yl)-2-(methyloxy)acetamide] were 104 nM and 624 nM.
Taken in the same sequence, the figures for `C=CC[C@H](NC(=O)c1cccs1)[C@H](O)CN[C@H]1CC2(CCC2)Oc2ncc(CC(C)(C)C)cc21` [Example 128, N-((1S)-1-((1R)-2-(((4′S)-6′-(2,2-dimethylpropyl)-3′,4′-dihydrospiro[cyclobutane-1,2′-pyrano[2,3-b]pyridin]-4′-yl)amino)-1-hydroxyethyl)-3-buten-1-yl)-2-thiophenecarboxamide] were 169 nM and 1320 nM.
On the same counts, the results for `C=CCC(NC(=O)C1CCC(=O)O1)C(O)CNC1CC2(CC(O)C2)Oc2ncc(CC(C)(C)C)cc21` [Example 112, (2S)-N-((1S)-1-((1R)-2-(((1s,3S,4′S)-6′-(2,2-dimethylpropyl)-3-hydroxy-3′,4′-dihydrospiro[cyclobutane-1,2′-pyrano[2,3-b]pyridin]-4′-yl)amino)-1-hydroxyethyl)-3-buten-1-yl)-5-oxotetrahydro-2-furancarboxamide] are 2 nM and 28 nM.
As to `C=CC[C@H](NC(=O)c1ccn(C)n1)[C@H](O)CN[C@H]1CC2(CCC2)Oc2ncc(CC(C)(C)C)cc21` [Example 132, N-((1S)-1-((1R)-2-(((4′S)-6′-(2,2-dimethylpropyl)-3′,4′-dihydrospiro[cyclobutane-1,2′-pyrano[2,3-b]pyridin]-4′-yl)amino)-1-hydroxyethyl)-3-buten-1-yl)-1-methyl-1H-pyrazole-3-carboxamide], the IC50 was determined as 302 nM at BACE1 and 418 nM in assay [1] (Homo sapiens, HEK293, 24 h).
With `C#CCC(NC(=O)C1CCC(=O)O1)C(O)CNC1CC2(CCC2)Oc2ncc(CC(C)(C)C)cc21` [Example 37, (2R)-N-((1S)-1-((1R)-2-(((1s,3S,4′S)-6′-(2,2-dimethylpropyl)-3′,4′-dihydrospiro[cyclobutane-1,2′-pyrano[2,3-b]pyridin]-4′-yl)amino)-1-hydroxyethyl)-3-butyn-1-yl)-5-oxotetrahydro-2-furancarboxamide], the IC50 on BACE1 came out at 18 nM; in assay [1] (Homo sapiens, HEK293, 24 h), 133 nM.

The term IC50 denotes the concentration that inhibits the measured activity by half.
